Patent US11084790B2, “Insoluble complex or solvate thereof, pharmaceutical composition and use thereof” (Fruithy Holdings Limited, priority 2017, dated 2021)

Assays:
[1] = Test on the solubility in media at different pH; format: physicochemical
Protocol: Test on the Solubility in Media at Different pH
About 200 mg of solid powders of Preparation Example 10 and Preparation Example 15 were added in a 500 mL phosphate buffered solution at different pH values (50 mmol/L, pH 5.5, pH 6.5, pH 7.4, and pH 8.0) respectively, placed into a dissolution tester, kept at a constant temperature of 37° C., and paddle stirred at 50 rpm for 72 hours. Appropriate amounts of the suspension were taken out at 15 min, 30 min, 45 min, 1 h, 2 h, 4 h, 6 h, 8 h, 24 h, 32 h, 48 h, and 72 h respectively, and centrifuged immediately (15000 rpm, 5 min). The supernatant was diluted with methanol by a factor of two. The concentration of the drug dissolved in the PB buffer solution was determined with an HPLC-b method.

[2] = Test on the solubility in a simulated body fluid; format: physicochemical; settings: 0.01 M PBS pH 7.4, 37° C.
Protocol: Test on the Solubility in a Simulated Body Fluid
The concentration of the drug dissolved in the PBS buffered solution was determined with an HPLC-a method.

[3] = phosphate buffer pH 5.5, 37° C., 0.25 h
[4] = phosphate buffer pH 5.5, 37° C., 0.5 h
[5] = phosphate buffer pH 5.5, 37° C., 0.75 h
[6] = phosphate buffer pH 5.5, 37° C., 1 h
[7] = phosphate buffer pH 5.5, 37° C., 2 h
[8] = phosphate buffer pH 5.5, 37° C., 4 h
[9] = phosphate buffer pH 5.5, 37° C., 6 h
[10] = phosphate buffer pH 5.5, 37° C., 8 h
[11] = phosphate buffer pH 5.5, 37° C., 24 h
[12] = phosphate buffer pH 5.5, 37° C., 32 h
[13] = phosphate buffer pH 5.5, 37° C., 48 h
[14] = phosphate buffer pH 5.5, 37° C., 72 h
[15] = phosphate buffer pH 6.5, 37° C., 0.25 h
[16] = phosphate buffer pH 6.5, 37° C., 0.5 h
[17] = phosphate buffer pH 6.5, 37° C., 0.75 h
[18] = phosphate buffer pH 6.5, 37° C., 1 h
[19] = phosphate buffer pH 6.5, 37° C., 2 h
[20] = phosphate buffer pH 6.5, 37° C., 4 h
[21] = phosphate buffer pH 6.5, 37° C., 6 h
[22] = phosphate buffer pH 6.5, 37° C., 8 h
[23] = phosphate buffer pH 6.5, 37° C., 24 h
[24] = phosphate buffer pH 6.5, 37° C., 32 h
[25] = phosphate buffer pH 6.5, 37° C., 48 h
[26] = phosphate buffer pH 6.5, 37° C., 72 h
[27] = phosphate buffer pH 7.4, 37° C., 0.25 h
[28] = phosphate buffer pH 7.4, 37° C., 0.5 h
[29] = phosphate buffer pH 7.4, 37° C., 0.75 h
[30] = phosphate buffer pH 7.4, 37° C., 1 h
[31] = phosphate buffer pH 7.4, 37° C., 2 h
[32] = phosphate buffer pH 7.4, 37° C., 4 h
[33] = phosphate buffer pH 7.4, 37° C., 6 h
[34] = phosphate buffer pH 7.4, 37° C., 8 h
[35] = phosphate buffer pH 7.4, 37° C., 24 h
[36] = phosphate buffer pH 7.4, 37° C., 32 h
[37] = phosphate buffer pH 7.4, 37° C., 48 h
[38] = phosphate buffer pH 7.4, 37° C., 72 h
[39] = phosphate buffer pH 8.0, 37° C., 0.25 h
[40] = phosphate buffer pH 8.0, 37° C., 0.5 h
[41] = phosphate buffer pH 8.0, 37° C., 0.75 h
[42] = phosphate buffer pH 8.0, 37° C., 1 h
[43] = phosphate buffer pH 8.0, 37° C., 2 h
[44] = phosphate buffer pH 8.0, 37° C., 4 h
[45] = phosphate buffer pH 8.0, 37° C., 6 h
[46] = phosphate buffer pH 8.0, 37° C., 8 h
[47] = phosphate buffer pH 8.0, 37° C., 24 h
[48] = phosphate buffer pH 8.0, 37° C., 32 h
[49] = phosphate buffer pH 8.0, 37° C., 48 h
[50] = phosphate buffer pH 8.0, 37° C., 72 h

CCCCN1CCCCC1C(=O)Nc1c(C)cccc1C.O=C(O)c1cc2ccccc2c(Cc2c(O)c(C(=O)O)cc3ccccc23)c1O [Preparation Example 10, mono(bupivacaine) pamoate]
molar ratio of the solubility (bupivacaine to pamoic acid) ([1]; media at pH 5.5, pH 7.4 and pH 8.0, remained for 48 hours or less): around 1.0
time for which the molar ratio of the solubility remained around 1.0 ([1]; medium at pH 6.5, decreased after a longer time): 8 h
Molar concentration of Bupivacaine [1, 3]: 0.047 mmol/L
Molar concentration of Pamoic acid [1, 3]: 0.046 mmol/L
Molar concentration of Bupivacaine [1, 4]: 0.078 mmol/L
Molar concentration of Pamoic acid [1, 4]: 0.076 mmol/L
Molar concentration of Bupivacaine [1, 5]: 0.106 mmol/L
Molar concentration of Pamoic acid [1, 5]: 0.103 mmol/L
Molar concentration of Bupivacaine [1, 6]: 0.136 mmol/L
Molar concentration of Pamoic acid [1, 6]: 0.132 mmol/L
Molar concentration of Bupivacaine [1, 7]: 0.188 mmol/L
Molar concentration of Pamoic acid [1, 7]: 0.182 mmol/L
Molar concentration of Bupivacaine [1, 8]: 0.222 mmol/L
Molar concentration of Pamoic acid [1, 8]: 0.218 mmol/L
Molar concentration of Bupivacaine [1, 9]: 0.234 mmol/L
Molar concentration of Pamoic acid [1, 9]: 0.232 mmol/L
Molar concentration of Bupivacaine [1, 10]: 0.234 mmol/L
Molar concentration of Pamoic acid [1, 10]: 0.23 mmol/L
Molar concentration of Bupivacaine [1, 11]: 0.246 mmol/L
Molar concentration of Pamoic acid [1, 11]: 0.244 mmol/L
Molar concentration of Bupivacaine [1, 12]: 0.248 mmol/L
Molar concentration of Pamoic acid [1, 12]: 0.248 mmol/L
Molar concentration of Bupivacaine [1, 13]: 0.198 mmol/L
Molar concentration of Pamoic acid [1, 13]: 0.236 mmol/L
Molar concentration of Bupivacaine [1, 14]: 0.142 mmol/L
Molar concentration of Pamoic acid [1, 14]: 0.224 mmol/L
Molar concentration of Bupivacaine [1, 15]: 0.05 mmol/L
Molar concentration of Pamoic acid [1, 15]: 0.053 mmol/L
Molar concentration of Bupivacaine [1, 16]: 0.084 mmol/L
Molar concentration of Pamoic acid [1, 16]: 0.09 mmol/L
Molar concentration of Bupivacaine [1, 17]: 0.115 mmol/L
Molar concentration of Pamoic acid [1, 17]: 0.124 mmol/L
Molar concentration of Bupivacaine [1, 18]: 0.148 mmol/L
Molar concentration of Pamoic acid [1, 18]: 0.160 mmol/L
Molar concentration of Bupivacaine [1, 19]: 0.274 mmol/L
Molar concentration of Pamoic acid [1, 19]: 0.296 mmol/L
Molar concentration of Bupivacaine [1, 20]: 0.384 mmol/L
Molar concentration of Pamoic acid [1, 20]: 0.414 mmol/L
Molar concentration of Bupivacaine [1, 21]: 0.396 mmol/L
Molar concentration of Pamoic acid [1, 21]: 0.424 mmol/L
Molar concentration of Bupivacaine [1, 22]: 0.404 mmol/L
Molar concentration of Pamoic acid [1, 22]: 0.448 mmol/L
Molar concentration of Bupivacaine [1, 23]: 0.186 mmol/L
Molar concentration of Pamoic acid [1, 23]: 0.440 mmol/L
Molar concentration of Bupivacaine [1, 24]: 0.15 mmol/L
Molar concentration of Pamoic acid [1, 24]: 0.426 mmol/L
Molar concentration of Bupivacaine [1, 25]: 0.14 mmol/L
Molar concentration of Pamoic acid [1, 25]: 0.428 mmol/L
Molar concentration of Bupivacaine [1, 26]: 0.128 mmol/L
Molar concentration of Pamoic acid [1, 26]: 0.416 mmol/L
Molar concentration of Bupivacaine [1, 27]: 0.0555 mmol/L
Molar concentration of Pamoic acid [1, 27]: 0.0605 mmol/L
Molar concentration of Bupivacaine [1, 28]: 0.095 mmol/L
Molar concentration of Pamoic acid [1, 28]: 0.105 mmol/L
Molar concentration of Bupivacaine [1, 29]: 0.1315 mmol/L
Molar concentration of Pamoic acid [1, 29]: 0.1465 mmol/L
Molar concentration of Bupivacaine [1, 30]: 0.170 mmol/L
Molar concentration of Pamoic acid [1, 30]: 0.190 mmol/L
Molar concentration of Bupivacaine [1, 31]: 0.288 mmol/L
Molar concentration of Pamoic acid [1, 31]: 0.320 mmol/L
Molar concentration of Bupivacaine [1, 32]: 0.386 mmol/L
Molar concentration of Pamoic acid [1, 32]: 0.430 mmol/L
Molar concentration of Bupivacaine [1, 33]: 0.428 mmol/L
Molar concentration of Pamoic acid [1, 33]: 0.476 mmol/L
Molar concentration of Bupivacaine [1, 34]: 0.440 mmol/L
Molar concentration of Pamoic acid [1, 34]: 0.486 mmol/L
Molar concentration of Bupivacaine [1, 35]: 0.426 mmol/L
Molar concentration of Pamoic acid [1, 35]: 0.550 mmol/L
Molar concentration of Bupivacaine [1, 36]: 0.402 mmol/L
Molar concentration of Pamoic acid [1, 36]: 0.592 mmol/L
Molar concentration of Bupivacaine [1, 37]: 0.204 mmol/L
Molar concentration of Pamoic acid [1, 37]: 0.498 mmol/L
Molar concentration of Bupivacaine [1, 38]: 0.166 mmol/L
Molar concentration of Pamoic acid [1, 38]: 0.458 mmol/L
Molar concentration of Bupivacaine [1, 39]: 0.0575 mmol/L
Molar concentration of Pamoic acid [1, 39]: 0.063 mmol/L
Molar concentration of Bupivacaine [1, 40]: 0.099 mmol/L
Molar concentration of Pamoic acid [1, 40]: 0.110 mmol/L
Molar concentration of Bupivacaine [1, 41]: 0.1375 mmol/L
Molar concentration of Pamoic acid [1, 41]: 0.154 mmol/L
Molar concentration of Bupivacaine [1, 42]: 0.178 mmol/L
Molar concentration of Pamoic acid [1, 42]: 0.200 mmol/L
Molar concentration of Bupivacaine [1, 43]: 0.308 mmol/L
Molar concentration of Pamoic acid [1, 43]: 0.344 mmol/L
Molar concentration of Bupivacaine [1, 44]: 0.416 mmol/L
Molar concentration of Pamoic acid [1, 44]: 0.468 mmol/L
Molar concentration of Bupivacaine [1, 45]: 0.494 mmol/L
Molar concentration of Pamoic acid [1, 45]: 0.554 mmol/L
Molar concentration of Bupivacaine [1, 46]: 0.558 mmol/L
Molar concentration of Pamoic acid [1, 46]: 0.624 mmol/L
Molar concentration of Bupivacaine [1, 47]: 0.610 mmol/L
Molar concentration of Pamoic acid [1, 47]: 0.688 mmol/L
Molar concentration of Bupivacaine [1, 48]: 0.622 mmol/L
Molar concentration of Pamoic acid [1, 48]: 0.702 mmol/L
Molar concentration of Bupivacaine [1, 49]: 0.592 mmol/L
Molar concentration of Pamoic acid [1, 49]: 0.694 mmol/L
Molar concentration of Bupivacaine [1, 50]: 0.44 mmol/L
Molar concentration of Pamoic acid [1, 50]: 0.7 mmol/L
Compound concentration: Bupivacaine ([2]; 5 min): 722 µM
Compound concentration: Pamoic acid ([2]; 5 min): 742.7 µM
Compound concentration: Bupivacaine ([2]; 15 min): 833 µM
Compound concentration: Pamoic acid ([2]; 15 min): 857.9 µM
Compound concentration: Bupivacaine ([2]; 30 min): 885.9 µM
Compound concentration: Pamoic acid ([2]; 30 min): 916.8 µM
Compound concentration: Bupivacaine ([2]; 1 h): 938.7 µM
Compound concentration: Pamoic acid ([2]; 1 h): 981.6 µM
Compound concentration: Bupivacaine ([2]; 2 h): 909.7 µM
Compound concentration: Pamoic acid ([2]; 2 h): 995.7 µM
Compound concentration: Bupivacaine ([2]; 6 h): 83.3 µM
Compound concentration: Pamoic acid ([2]; 6 h): 1867.3 µM
Compound concentration: Bupivacaine ([2]; 24 h): 67 µM
Compound concentration: Pamoic acid ([2]; 24 h): 2560.5 µM
